# Where a name gives a salt, the structure may show the parent alone.
# System: NLRP3 inflammasome
# Experiment: IL-1β Secretion Assay (NLRP3-dependent IL-1β secretion in PMA-differentiated THP-1 cells, nigericin activation, HTRF)
# Type: cell-based
# Settings: Homo sapiens, THP-1, THP-1 cells, 100 ng/mL PMA 24 h, compound 20 h, 2.5 μM Nigericin 3 h; read-out: IC50 IL-1β Inhibition
# Outline: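 IL-1β release, quantified by HTRF after nigericin activation of the NLRP3 inflammasome, was the read-out. A logistic fit of percent inhibition gave IC50.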
row,SMILES,IC50
1,Cc1cc(C(F)(F)F)cc(O)c1-c1nnc(N[C@@H]2CCCN(C)C2)c2cnccc12 [Compound I-103],< 1 nM
2,"CN1CCC[C@@H](Nc2nnc(-c3ccc(C(F)(F)F)cc3O)c3cncn23)C1 [Compound I-333, 2-[4-[[(3R)-1-Methyl-3-piperidyl]amino]imidazo[1,5-d][1,2,4]triazin-1-yl]-5-(trifluoromethyl)phenol]",< 1 nM
3,CCN1CCC[C@@H](Nc2nnc(-c3c(O)cc(C4CC4)cc3F)c3cccn23)C1 [Compound I-495],< 1 nM
4,Cc1cc(O)c(-c2nnc(N[C@@H]3CCCN(C)C3)c3cnccc23)c(F)c1 [Compound I-179],< 1 nM
5,CN1CCC[C@@H](Nc2nnc(-c3cnc(C#N)cc3O)c3ccccc23)C1 [Compound I-74],10 to 100 nM
6,Oc1cc(C(F)(F)F)ccc1-c1nnc(NC[C@@H]2CCCN2)c2cnccc12 [Compound I-111],1 to 10 nM
7,OCCN1CCC[C@@H](Nc2nnc(-c3ccc(Cl)cc3O)c3cncn23)C1 [Compound I-436],1 to 10 nM
8,C[C@]1(O)C[C@@H](Nc2nnc(-c3ccc(C(F)(F)F)cc3C(F)(F)F)c3cccn23)C1 [Compound I-532],1 to 10 nM
9,COCOc1cc(-c2ncco2)ccc1-c1nnc(N[C@H]2CCCN(C)C2)c2cnccc12 [Compound I-173],10 to 100 nM
10,C[C@]1(O)C[C@@H](Nc2nnc(-c3ccc(Br)cc3O)c3cncn23)C1 [Compound I-627],1 to 10 nM
11,OCCN1CCC(CNc2nnc(-c3ccc(C(F)(F)F)cc3O)c3ccncc23)CC1 [Compound I-303],1 to 10 nM
12,Oc1cc(C(F)(F)F)ccc1-c1nnc(N[C@@H]2CCCNC2)c2cnccc12 [Compound I-35],< 1 nM
13,CCN1CCC[C@@H](Nc2nnc(-c3ccc(C(F)(F)F)cc3OC(F)F)c3cc(C)nn23)C1 [Compound I-556],1 to 10 nM
14,CN1CCC[C@@H](Nc2nnc(-c3ccc(Cl)cc3O)c3cccnc23)C1 [Compound I-67],< 1 nM
15,CN1CCC[C@@H](Nc2nnc(-c3ccc(C(F)(F)F)cc3-c3ccccc3)c3ccncc23)C1 [Compound I-202],10 to 100 nM
16,CN1CCC[C@@H](Nc2nnc(-c3ccc(OC(F)(F)F)cc3O)c3c(F)ccn23)C1 [Compound I-441],1 to 10 nM
17,"FC(F)Oc1cc(C(F)(F)F)ccc1-c1nnc(N[C@@H]2CCCCCNC2)n2cccc12 [Compound I-324, 1-[2-(difluoromethoxy)-4-(trifluoromethyl)phenyl]-N-[(3R)-azocan-3-yl]pyrrolo[1,2-d][1,2,4]triazin-4-amine]",1 to 10 nM
18,Cc1ccc(-c2nnc(N[C@@H]3CCCN(C)C3)c3c2CCC3)c(OC(F)F)c1 [Compound I-244],10 to 100 nM
19,CN1CCC[C@@H](Nc2nnc(-c3ccc(C(F)(F)F)cc3-c3cccnc3)c3ccncc23)C1 [Compound I-240],100 to 300 nM
20,CCN1CCC[C@@H](Nc2nnc(-c3ccc(C(F)(F)F)cc3O)c3ccncc23)C1 [Compound I-43],< 1 nM
21,N[C@H]1CCC[C@@H](Nc2nnc(-c3ccc(C(F)(F)F)cc3OC(F)F)c3cccn23)C1 [Compound I-378],10 to 100 nM
22,"CCN1CCC[C@@H](Nc2nnc(-c3ccc(C(F)(F)F)cc3OC(F)F)c3cncn23)C1 [Compound I-574, (R)-1-(2-(Difluoromethoxy)-4-(trifluoromethyl)phenyl)-N-(1-ethylpiperidin-3-yl)imidazo[1,5-d][1,2,4]triazin-4-amine]",< 1 nM

row,SMILES,IC50
1,"OCCN1CCC[C@@H](Nc2nnc(-c3ccc(C(F)(F)F)cc3OC(F)F)c3ccncc23)C1 [Compound I-206, 2-[(3R)-3-[[1-[2-(Difluoromethoxy)-4-(trifluoromethyl)phenyl]pyrido[3,4-d]pyridazin-4-yl]amino]-1-piperidyl]ethanol]",< 1 nM
2,CN1CCC[C@@H](Nc2nnc(-c3ccc(C(F)(F)F)cc3C(F)(F)F)c3ccncc23)C1 [Compound I-177],1 to 10 nM
3,"CN1CC[C@@H](F)[C@@H](Nc2nnc(-c3ccc(C(F)(F)F)cc3O)c3cccn23)C1 [Compound I-486, 2-(4-(((3S,4R)-4-Fluoro-1-methylpiperidin-3-yl)amino)pyrrolo[1,2-d][1,2,4]triazin-1-yl)-5-(trifluoromethyl)phenol]",10 to 100 nM
4,Cc1ccc(-c2nnc(N[C@@H]3CCCN(C)C3)c3ccncc23)c(O)c1 [Compound I-99],< 1 nM
5,CN1CCCCC(Nc2nnc(-c3ccc(C(F)(F)F)cc3O)c3cnccc23)C1 (stereo not drawn) [Compound I-185],10 to 100 nM
6,Cc1cc2c(-c3c(O)cc(C(F)(F)F)cc3F)nnc(N[C@@H]3CCCN(C)C3)n2c1 [Compound I-607],< 1 nM
7,Oc1cc(C(F)(F)F)ccc1-c1nnc(N[C@@H]2CCC[C@H](O)C2)n2ccc(F)c12 [Compound I-526],10 to 100 nM
8,CO[C@H]1CCC[C@@H](Nc2nnc(-c3ccc(C(F)(F)F)cc3O)c3cccn23)C1 [Compound I-400],100 to 300 nM
9,C[C@]1(O)C[C@@H](Nc2nnc(-c3ccc(C(F)(F)F)cc3C(F)F)c3cccn23)C1 [Compound I-427],10 to 100 nM
10,OCCN1CCC[C@@H](Nc2nnc(-c3ccc(C(F)(F)F)cc3O)c3ccncc23)C1 [Compound I-55],< 1 nM
11,Oc1cc(C(F)(F)F)ccc1-c1nnc(NC2CNC2)c2ccccc12 [Compound I-109],10 to 100 nM
12,C[C@H]1COCCN1CCNc1nnc(-c2ccc(C(F)(F)F)cc2O)c2ccccc12 [Compound I-148],10 to 100 nM
13,CNS(=O)(=O)c1cc(C(F)(F)F)ccc1-c1nnc(N[C@@H]2CCCN(C)C2)c2cnccc12 [Compound I-169],10 to 100 nM
14,CC(C)N1CCC[C@@H](Nc2nnc(-c3ccc(Cl)cc3O)c3cccn23)C1 [Compound I-404],< 1 nM
15,Oc1cc(C(F)(F)F)ccc1-c1nnc(CC2CCCNC2)c2ccccc12 (stereo not drawn) [Compound I-30],10 to 100 nM
16,"COc1cc(C(F)(F)F)ccc1-c1nnc(N[C@@H]2CCCN(C)C2)n2ccnc12 [Compound I-386, 8-[2-Methoxy-4-(trifluoromethyl)phenyl]-N-[(3R)-1-methyl-3-piperidyl]imidazo[1,2-d][1,2,4]triazin-5-amine formic acid salt]",100 to 300 nM
17,CCN1CCC[C@@H](Nc2nnc(-c3ccc(OC)cc3O)c3ccnn23)C1 [Compound I-632],1 to 10 nM
18,"OCCN1CCC[C@@H](Nc2nnc(-c3c(O)cc(C4CC4)cc3F)c3ccncc23)C1 [Compound I-284, 5-Cyclopropyl-3-fluoro-2-[4-[[(3R)-1-(2-hydroxyethyl)-3-piperidyl]amino]-pyrido[3,4-d]pyridazin-1-yl]phenol]",< 1 nM
19,O=C(c1ccc(-c2nnc(N[C@@H]3CCCNC3)c3ccccc23)c(O)c1)C(F)(F)F [Compound I-220],100 to 300 nM
20,CN1CCC[C@@H](Nc2nnc(-c3ccc(OC(F)(F)F)cc3OC(F)F)c3ccncc23)C1 [Compound I-191],1 to 10 nM
21,CN1C[C@H](F)C[C@@H](Nc2nnc(-c3ccc(C(F)(F)F)cc3O)c3ccccc23)C1 [Compound I-151],< 1 nM
22,CN1C[C@H](F)C[C@@H](Nc2nnc(-c3ccc(OC(F)(F)F)cc3OC(F)F)c3cccn23)C1 [Compound I-521],1 to 10 nM

row,SMILES,IC50
1,CCN1CCC[C@@H](Nc2nnc(-c3c(O)cc(OC(F)F)cc3F)c3cccn23)C1 [Compound I-616],< 1 nM
2,Oc1cc(C(F)(F)F)ccc1-c1nnc(NC2CCCCC2)c2cnccc12 [Compound I-288],1 to 10 nM
3,C[C@]1(O)C[C@@H](Nc2nnc(-c3c(O)cc(C4CC4)cc3F)c3cccn23)C1 [Compound I-467],1 to 10 nM
4,Cc1cc(Cl)cc(F)c1-c1nnc(N[C@@H]2CCCN(C)C2)c2cnccc12 [Compound I-198],10 to 100 nM
5,COc1ccc(-c2nnc(N[C@H]3CCCN(C)C3)c3cnccc23)c(C(C)C)c1 [Compound I-296],1 to 10 nM
6,Cc1cc(F)c(-c2nnc(N[C@@H]3CCCN(C4CCOC4)C3)n3cccc23)c(OC(F)F)c1 (stereo partly drawn) [Compound I-488],10 to 100 nM
7,Cc1cc(C(F)(F)F)cc(F)c1-c1nnc(N[C@@H]2CCCN(C)C2)c2cnccc12 [Compound I-222],1 to 10 nM
8,CN1CCC[C@@H](Nc2nnc(-c3c(O)cc(C(F)(F)F)cc3F)c3ccncc23)C1 [Compound I-197],< 1 nM
9,CN1CCCCC(Nc2nnc(-c3ccc(C(F)(F)F)cc3O)c3ccccc23)C1 (stereo not drawn) [Compound I-95],1 to 10 nM
10,CC1(C)CCc2c(N[C@@H]3CCCNC3)nnc(-c3ccc(C(F)(F)F)cc3O)c21 [Compound I-45],1 to 10 nM
11,Cc1cc(O)c(-c2nnc(N[C@@H]3CCCN(C)C3)n3nc(C)cc23)c(F)c1 [Compound I-359],< 1 nM
12,CN1C[C@H](F)C[C@@H](Nc2nnc(-c3ccc(C(F)(F)F)cc3OC(F)F)c3c(F)ccn23)C1 [Compound I-439],1 to 10 nM
13,COc1cc(C)cc(O)c1-c1nnc(N[C@@H]2CCCN(C)C2)c2cnccc12 [Compound I-267],1 to 10 nM
14,Oc1cc(C2CC2)cc(F)c1-c1nnc(N[C@@H]2CCCN(CC(F)F)C2)n2cccc12 [Compound I-510],10 to 100 nM
15,CN1CCC[C@@H](Nc2nnc(-c3ccc(C(F)(F)F)cc3C3=CCOC3)c3ccncc23)C1 [Compound I-145],1 to 10 nM
16,Oc1cc(Br)ccc1-c1nnc(N[C@@H]2CCCNC2)n2nccc12 [Compound I-391],1 to 10 nM
17,COc1cc(O)c(-c2nnc(N[C@@H]3CCCN(C)C3)n3nc(C)cc23)c(F)c1 [Compound I-551],< 1 nM
18,Cc1cc(O)c(-c2nnc(N[C@@H]3CCCN(C)C3)c3cnccc23)cc1F [Compound I-88],< 1 nM
19,"C#Cc1ccc(-c2nnc(N[C@@H]3CCCN(C)C3)c3ccccc23)c(O)c1 [Compound I-226, (R)-5-ethynyl-2-(4-((1-methylpiperidin-3-yl)amino)phthalazin-1-yl)phenol]",< 1 nM
20,Oc1cc(C(F)(F)F)ccc1-c1nnc(N[C@H]2CNCCOC2)c2cnccc12 [Compound I-252],10 to 100 nM
21,C[C@]1(O)C[C@@H](Nc2nnc(-c3ccc(OC(F)(F)F)cc3O)c3cccn23)C1 [Compound I-523],10 to 100 nM
22,CCOc1cc(O)c(-c2nnc(N[C@H]3C[C@@](C)(O)C3)n3cccc23)c(F)c1 [Compound I-629],10 to 100 nM

# — patent US20240262806A1, “INHIBITORS OF NLRP3” (PTC THERAPEUTICS, INC., priority 2021, published 2024)
